40 compounds from patent US10807944B2, “HDAC inhibitor compounds and methods of treatment” (priority 2014, dated 2020) can be followed below.

Assay [1] concerns the target HDAC1 (Homo sapiens (Human), UniProt Q13547). The experiment in a line: HDAC1 in vitro inhibition, dose response. The class given is biochemical. To be noted: Table 2; read-out: HDAC 1 IC50.
Assay [2] has as its target HDAC3 (Homo sapiens (Human), UniProt O15379). The assay can be described thus: HDAC3 in vitro inhibition, dose response. To be noted: Table 2; read-out: HDAC 3 IC50. The class given is biochemical.
Assay [3] has as its target HDAC2 (Homo sapiens (Human), UniProt Q92769). The assay can be described thus: HDAC2 in vitro inhibition, dose response. In kind it is biochemical. To be noted: Table 2; read-out: HDAC 2 IC50.
For assay [4], the target named is HDAC6 (Homo sapiens (Human), UniProt Q9UBN7). The experiment in a line: HDAC6 in vitro inhibition, dose response. In kind it is biochemical. To be noted: Table 2; read-out: HDAC 6 IC50.
Assay [5] concerns the target HDAC8 (Homo sapiens (Human), UniProt Q9BY41). The assay can be described thus: HDAC8 in vitro inhibition, dose response. To be noted: Table 2; read-out: HDAC 8 IC50. In kind it is biochemical.
Assay [6] concerns HCT116 and A549 cells. The experiment in a line: Acetylation of non-histone proteins by Western blotting. The class given is cell-based. To be noted: HCT116 and A549, 1 h; TSA 0.2 μM, UF010 2 μM. For orientation: Immunoblotting shows a protein as a band on a membrane.
Assay [7] relates to HCT116 cells. The experiment in a line: Histone acetylation by Western blotting. The class given is cell-based. Conditions: HCT116, 1 h exposure; TSA 0.2 μM, others 2 μM (FIG. 1A).

HDAC6, sequence (Q9UBN7 whole entry): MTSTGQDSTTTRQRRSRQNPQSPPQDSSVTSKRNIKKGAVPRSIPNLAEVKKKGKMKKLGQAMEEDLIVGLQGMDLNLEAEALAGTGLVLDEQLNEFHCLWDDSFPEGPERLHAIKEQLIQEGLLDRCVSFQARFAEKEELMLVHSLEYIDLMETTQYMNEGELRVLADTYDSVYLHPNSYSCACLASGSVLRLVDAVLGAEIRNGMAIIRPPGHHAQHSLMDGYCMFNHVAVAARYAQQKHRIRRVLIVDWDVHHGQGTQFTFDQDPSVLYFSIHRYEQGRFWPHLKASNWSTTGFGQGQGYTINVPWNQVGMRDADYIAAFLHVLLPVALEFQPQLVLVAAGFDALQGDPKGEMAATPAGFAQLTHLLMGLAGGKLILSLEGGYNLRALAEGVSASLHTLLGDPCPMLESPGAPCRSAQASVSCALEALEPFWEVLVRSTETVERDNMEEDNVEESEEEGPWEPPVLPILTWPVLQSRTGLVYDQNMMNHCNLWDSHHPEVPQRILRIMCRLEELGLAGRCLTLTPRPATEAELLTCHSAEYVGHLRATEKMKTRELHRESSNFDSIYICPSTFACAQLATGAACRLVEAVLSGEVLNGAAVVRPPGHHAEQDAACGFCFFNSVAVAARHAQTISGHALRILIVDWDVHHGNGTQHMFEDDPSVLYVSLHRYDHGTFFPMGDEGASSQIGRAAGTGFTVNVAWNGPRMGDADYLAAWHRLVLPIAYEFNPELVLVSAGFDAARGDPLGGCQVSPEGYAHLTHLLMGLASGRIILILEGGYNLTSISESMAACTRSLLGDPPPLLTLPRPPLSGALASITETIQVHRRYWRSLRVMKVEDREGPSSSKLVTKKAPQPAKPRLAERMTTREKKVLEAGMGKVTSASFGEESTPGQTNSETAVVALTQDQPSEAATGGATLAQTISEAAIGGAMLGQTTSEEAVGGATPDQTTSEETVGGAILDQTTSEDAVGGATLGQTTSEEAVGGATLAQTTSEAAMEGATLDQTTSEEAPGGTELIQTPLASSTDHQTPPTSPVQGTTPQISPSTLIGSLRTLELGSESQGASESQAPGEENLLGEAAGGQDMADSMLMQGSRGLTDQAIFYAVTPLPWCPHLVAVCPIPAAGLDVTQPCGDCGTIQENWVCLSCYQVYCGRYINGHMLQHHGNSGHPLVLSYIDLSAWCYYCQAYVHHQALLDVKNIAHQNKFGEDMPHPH
HDAC8, sequence (Q9BY41 whole entry): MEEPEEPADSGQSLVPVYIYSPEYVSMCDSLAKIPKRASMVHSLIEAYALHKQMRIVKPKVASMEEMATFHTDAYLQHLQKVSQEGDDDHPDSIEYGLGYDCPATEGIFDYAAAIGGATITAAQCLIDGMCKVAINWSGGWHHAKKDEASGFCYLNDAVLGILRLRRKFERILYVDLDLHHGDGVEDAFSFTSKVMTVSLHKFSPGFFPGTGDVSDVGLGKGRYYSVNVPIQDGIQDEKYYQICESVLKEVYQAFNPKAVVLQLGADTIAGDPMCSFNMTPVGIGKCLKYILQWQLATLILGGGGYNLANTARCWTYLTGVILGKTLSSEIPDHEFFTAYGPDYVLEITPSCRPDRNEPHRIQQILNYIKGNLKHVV
HDAC1, sequence (Q13547 whole entry): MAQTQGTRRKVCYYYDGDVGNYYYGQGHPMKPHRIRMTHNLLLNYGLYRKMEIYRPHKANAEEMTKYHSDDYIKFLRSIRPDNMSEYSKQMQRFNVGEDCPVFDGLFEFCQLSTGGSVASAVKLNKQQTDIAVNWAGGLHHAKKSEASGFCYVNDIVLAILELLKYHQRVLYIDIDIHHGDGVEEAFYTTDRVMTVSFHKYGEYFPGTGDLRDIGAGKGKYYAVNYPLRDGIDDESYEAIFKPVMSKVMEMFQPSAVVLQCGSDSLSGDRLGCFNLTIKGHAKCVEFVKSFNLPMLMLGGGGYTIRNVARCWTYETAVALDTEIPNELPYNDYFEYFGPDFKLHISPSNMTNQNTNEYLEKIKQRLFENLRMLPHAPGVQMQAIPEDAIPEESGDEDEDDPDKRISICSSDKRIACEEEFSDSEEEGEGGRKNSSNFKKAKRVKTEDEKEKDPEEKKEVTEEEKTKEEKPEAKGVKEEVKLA
HDAC2, sequence (Q92769 whole entry): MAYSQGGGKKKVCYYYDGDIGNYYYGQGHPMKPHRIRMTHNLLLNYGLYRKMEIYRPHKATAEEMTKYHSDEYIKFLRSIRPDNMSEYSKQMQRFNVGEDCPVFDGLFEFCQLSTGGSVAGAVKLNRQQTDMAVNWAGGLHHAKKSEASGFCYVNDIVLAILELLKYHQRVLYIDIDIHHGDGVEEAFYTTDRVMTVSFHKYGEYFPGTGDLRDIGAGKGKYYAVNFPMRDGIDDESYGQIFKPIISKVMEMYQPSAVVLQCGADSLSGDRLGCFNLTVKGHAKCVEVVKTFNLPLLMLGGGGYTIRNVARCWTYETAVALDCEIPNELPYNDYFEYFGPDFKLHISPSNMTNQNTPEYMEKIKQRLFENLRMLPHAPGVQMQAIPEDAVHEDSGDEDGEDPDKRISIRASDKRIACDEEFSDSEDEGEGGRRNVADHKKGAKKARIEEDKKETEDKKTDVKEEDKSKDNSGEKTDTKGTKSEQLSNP
HDAC3, sequence (O15379 whole entry): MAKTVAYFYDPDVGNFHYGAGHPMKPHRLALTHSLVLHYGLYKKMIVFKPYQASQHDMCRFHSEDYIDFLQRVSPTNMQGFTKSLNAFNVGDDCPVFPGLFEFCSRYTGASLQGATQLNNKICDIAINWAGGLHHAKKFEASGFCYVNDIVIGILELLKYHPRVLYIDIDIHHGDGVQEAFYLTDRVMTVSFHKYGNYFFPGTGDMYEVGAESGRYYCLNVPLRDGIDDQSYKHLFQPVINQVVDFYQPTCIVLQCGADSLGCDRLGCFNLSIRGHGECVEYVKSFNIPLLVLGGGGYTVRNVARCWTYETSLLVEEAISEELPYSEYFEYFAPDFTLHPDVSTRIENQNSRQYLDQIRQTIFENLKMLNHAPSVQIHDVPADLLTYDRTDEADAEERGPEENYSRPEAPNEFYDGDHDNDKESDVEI
HDAC3, sequence (Q9Y618 395-489 partner): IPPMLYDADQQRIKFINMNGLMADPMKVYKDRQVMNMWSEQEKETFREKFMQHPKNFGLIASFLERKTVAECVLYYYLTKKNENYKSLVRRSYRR

Broadly, the IC50 is the concentration that gives 50% inhibition. For `CCCCNNC(=O)c1ccc(F)cc1` [RLS2-123, N′-butyl-4-fluorobenzohydrazide], the IC50 in assay [1] was found to be 13.2 µM; in assay [2], 1.78 µM; in assay [3], 15.1 µM.
On to `CCCCNNC(=O)c1ccc(OC(F)(F)F)cc1` [RLS2-124, N′-butyl-4-(trifluoromethoxy)benzohydrazide], for which the IC50 in assay [1] stood at 8.86 µM; in assay [2], 1.35 µM; in assay [3], 9.09 µM.
In the case of `CCCCNNC(=O)c1ccc(OC)cc1` [RLS2-126, N′-butyl-4-methoxybenzohydrazide], the IC50 in assay [1] worked out at 1.91 µM; in assay [2] it was 0.43 µM; in assay [3] it was 2.52 µM.
On the same counts, the results for `CCCCNNC(=O)c1ccc([N+](=O)[O-])cc1` [RLS2-128, N′-butyl-4-nitrobenzohydrazide] are 21.3 µM, 2.47 µM and 21.2 µM.
For `CCCCNNC(=O)c1ccc(Cl)cc1` [RLS2-133, N′-butyl-4-chlorobenzohydrazide], the IC50 in assay [1] is 3.75 µM; in assay [2], 0.95 µM; in assay [3], 5.82 µM.
`CCCNNC(=O)c1ccc(Br)cc1` [RLS2-137, 4-bromo-N′-propylbenzohydrazide]: the IC50 in assay [1] was determined as 1.7 µM; in assay [2], 0.22 µM; in assay [3] it was 3.88 µM.
For the compound `O=C(NNCCc1ccccc1)c1ccc(Br)cc1` [RLS2-138, 4-bromo-N′-phenethylbenzohydrazide], the IC50 in assay [1], in assay [2] and in assay [3] was greater than 50 µM in each case.
Take `CC(C)NNC(=O)c1ccccc1` [RLS2-185, N′-isopropylbenzohydrazide]: the IC50 in assay [1], in assay [2] and in assay [3] was greater than 50 µM throughout.
As for `Cc1ccc(C(=O)NNC(C)(C)C)cc1` [RLS2-187, N′-tert-butyl-4-methylbenzohydrazide], the IC50 in assay [1], in assay [2] and in assay [3] was greater than 50 µM in each case.
Regarding `CCCCNNC(=O)c1cc2ccccc2cc1O` [RLS2-210, N′-butyl-3-hydroxy-2-naphthohydrazide], the IC50 in assay [1], in assay [2] and in assay [3] was greater than 50 µM each time.
Turning to `CCCCNNC(=O)c1ccc(C(C)(C)C)cc1` [RLS2-211, 4-tert-butyl-N′-butylbenzohydrazide], the IC50 in assay [1] stood at 0.19 µM; in assay [2] it was 0.07 µM; in assay [4], 0.045 µM; in assay [3] it was 1.04 µM; in assay [5], 0.045 µM.
As to `O=C(NNCCC1CCCC1)c1ccc(Br)cc1` [RLS2-219, 4-bromo-N′-(2-cyclopentylethyl)benzohydrazide], the IC50 in assay [1] is 7.4 µM; in assay [2], 1.08 µM; in assay [3], 7.65 µM.
With `CN(C)c1ccc(C(=O)NNCC2CCCC2)cc1` [RLS2-225, N′-(cyclopentylmethyl)-4-(dimethylamino)benzohydrazide], the IC50 in assay [1] is 1.76 µM; in assay [2] it was 1.67 µM; in assay [3], 3.25 µM.
Take `CCCCNNC(=O)c1ccc2ccccc2c1` [RLS2-238, N′-butyl-2-naphthohydrazide]: the half-inhibitory concentration (IC50) in assay [1] came out at 4.3 µM; in assay [3], 5.92 µM.
For the compound `CCNNC(=O)c1ccc2ccccc2c1` [RLS2-240, N′-ethyl-2-naphthohydrazide], the IC50 in assay [1], in assay [2] and in assay [3] was greater than 50 µM throughout.
As for `NNC(=O)c1ccc2ccccc2c1` [RLS2-243, 2-naphthohydrazide], the IC50 in assay [1], in assay [2] and in assay [3] was greater than 50 µM throughout.
Consider `O=C(NNCCCC1CCCC1)c1ccc2ccccc2c1` [RLS2-249, N′-(3-cyclopentylpropyl)-2-naphthohydrazide], for which the IC50 in assay [1], in assay [2] and in assay [3] was greater than 50 µM throughout.
On to `O=C(NNCC1CCCC1)c1ccc2ccccc2c1` [RLS2-254, N′-(cyclopentylmethyl)-2-naphthohydrazide], for which the IC50 in assay [1], in assay [2] and in assay [3] was greater than 50 µM each time.
With `CCCNNC(=O)c1ccc2ccccc2c1` [RLS2-255, N′-propyl-2-naphthohydrazide], the IC50 was determined as 3.5 µM in assay [1], 1.65 µM in assay [2] and 6.68 µM in assay [3].
Turning to `O=C(NNCC1CCCC1)c1ccc(Br)cc1` [RLS2-256, 4-bromo-N′-(cyclopentylmethyl)benzohydrazide], the concentration for half-maximal inhibition (IC50) was 8.81 µM in assay [1], 6.98 µM in assay [2] and 28.4 µM in assay [3].
For `O=C(NNCCCC1CCCC1)c1ccc(Br)cc1` [RLS2-257, 4-bromo-N′-(3-cyclopentylpropyl)benzohydrazide], the IC50 in assay [1], in assay [2] and in assay [3] was greater than 50 µM throughout.
As for `CCCCCCNNC(=O)c1ccc(C(C)(C)C)cc1` [RLS2-283, 4-tert-butyl-N′-hexylbenzohydrazide], the 50% inhibitory concentration (IC50) is 2.25 µM in assay [1], 8.08 µM in assay [2] and 2.82 µM in assay [3].
For `CCCCCCNNC(=O)c1ccc(Br)cc1` [RLS2-284, 4-bromo-N′-hexylbenzohydrazide], the IC50 in assay [1] was determined as 10.3 µM; in assay [2], 20 µM; in assay [3] it was 16.1 µM.
In the case of `CCCCNNC(=O)c1cccnc1` [RLS2-289, N′-butylnicotinohydrazide], the results for the IC50 in assay [1], in assay [2] and in assay [3] were 14.5 µM, 4.35 µM and 56.7 µM, respectively.
As for `CCCCNNC(=O)c1ccncc1` [RLS2-290, N′-butylisonicotinohydrazide], the IC50 in assay [1] was 4.28 µM; in assay [2] it was 1.4 µM; in assay [3], 13.7 µM.
Turning to `CCCCNNC(=O)c1cccc(OCC)c1` [RLS2-303, N′-butyl-3-ethoxybenzohydrazide], the IC50 in assay [1], in assay [2] and in assay [3] was greater than 50 µM in each case.
`CCCCNNC(=O)c1ccccc1F` [RLS2-305, N′-butyl-2-fluorobenzohydrazide]: the IC50 in assay [1] came to 72.3 µM; in assay [2], 42.4 µM; in assay [3] it was 79.6 µM.
Regarding `CCCCNNC(=O)c1ccc(CN=[N+]=[N-])cc1` [RLS2-312, 4-(azidomethyl)-N′-butylbenzohydrazide], the IC50 in assay [1] was determined as 0.32 µM; in assay [2], 0.15 µM; in assay [4], 0.009 µM; in assay [3], 0.527 µM.
Regarding `CCCCNNC(=O)c1ccccc1-c1ccccc1` [RLS3-4, N′-butylbiphenyl-2-carbohydrazide], the IC50 in assay [1], in assay [2] and in assay [3] was greater than 50 µM throughout.
For the compound `CCCCNNC(=O)c1cccc(I)c1` [RLS3-5, N′-butyl-3-iodobenzohydrazide], the IC50 in assay [1] is 31.4 µM; in assay [2] it was greater than 50 µM; in assay [3] it was 47 µM.
For the compound `CCCCNNC(=O)c1cccc(C(F)(F)F)c1` [RLS3-6, N′-butyl-3-(trifluoromethyl)benzohydrazide], the results for the IC50 in assay [1], in assay [2] and in assay [3] were 35.3 µM, 1.88 µM and 93.3 µM, respectively.
On to `CCCCNNC(=O)c1ccc(OC)c(OC)c1` [RLS3-11, N′-butyl-3,4-dimethoxybenzohydrazide], for which the IC50 amounted to 22.2 µM in assay [1], 4 µM in assay [2] and 20.4 µM in assay [3].
As for `CCCCNNC(=O)c1ccc(OCC)c(OCC)c1` [RLS3-14, N′-butyl-3,4-diethoxybenzohydrazide], the IC50 in assay [1] came to 11.8 µM; in assay [2], 0.8 µM; in assay [3], 7.4 µM.
Turning to `CCCCNNC(=O)c1ccc(OC)c(OC)c1` [RLS3-20], the IC50 was greater than 50 µM in assay [1], 13.8 µM in assay [2] and 30.1 µM in assay [3].
With `CCCCNNC(=O)c1ccc(-c2ccccc2)cc1` [RLS3-43, N′-butylbiphenyl-4-carbohydrazide], the values for the IC50 in assay [1], in assay [3] and in assay [5] were 0.09 µM, 0.8 µM and 2.43 µM, respectively.
For the compound `CCCCNNC(=O)c1ccc(-c2cncnc2)cc1` [SR-4369, N′-butyl-4-(pyrimidin-5-yl)benzohydrazide], the figures for the concentration for half-maximal inhibition (IC50) in assay [1], in assay [2] and in assay [3] were 1.24 µM, 2.29 µM and 7.27 µM, respectively.
As to `CCCCNNC(=O)c1ccc(-c2cc(C)cc(F)c2)cc1` [SR-4372, N′-butyl-3′-fluoro-5′-methylbiphenyl-4-carbohydrazide], the IC50 is 0.76 µM in assay [1]; 0.38 µM in assay [2]; 3.7 µM in assay [4]; 1.2 µM in assay [3]; 3.6 µM in assay [5].
For `CCCCNNC(=O)c1ccc(-c2cc(C(=O)OCC)ccc2F)cc1` [SR-4373, ethyl 4′-(2-butylhydrazinecarbonyl)-6-fluorobiphenyl-3-carboxylate], the IC50 in assay [1] came out at 1.3 µM; in assay [2], 0.42 µM; in assay [4], 6.5 µM.
In the case of `CC(/C=C/C(=O)NO)=C\[C@@H](C)C(=O)c1ccc(N(C)C)cc1` [TSA, Trichostatin A, reference compound], in assay [6], the α-tubulin acetylation entry is “dramatically increased”. Also, the “accumulation of acetylated histones” value in assay [7] is “strongly induced acetylation at some sites but weakly at other sites”.
For “N′-butyl-3-fluorobenzohydrazide [RLS2-306]”, the results for the IC50 in assay [1], in assay [2] and in assay [3] were 8.63 µM, 4.77 µM and 10.9 µM, respectively.
